Assay results taken from patent publication US20080200337A1, “Mixed herbicide compositions for paddy field” (Bayer CropScience, priority 2007, published 2008).
Where “and” joins values, the source holds several entries; their conditions need not be identical. Identical values can stand only once.

What was measured:
Assay type in all cases: in vivo
[1] = system: submerged direct sown paddy (RD-23); experiment: Phytotoxicity, spray treatment at 1.5 to 3.0 leaf-stage (Test Example 3); details: spray at 1.5 to 3.0 leaf-stage, 4 weeks later, RD-23
Method: (§1) Carrier: 5 parts by weight of acetone
(§2) Surfactant: one part by weight of benzyloxy polyglycol ether.
(§3) Above described carrier and surfactant are mixed with one part by weight of the active compound ((a) ingredient and (b) ingredient) and the resulting preparation is then diluted with water to obtain given amount of the test drug (the formulation).
(§4) In a greenhouse, seeds of rice (var.: Nipponbare and RD23) and weeds (Echinochloa oryzicola Vasing, Echinochloa cruss-galli, Leptochloa chinensis, Cyperus difformis L., Cyperus iria L., annual broad-leaved weeds (Monochoria vaginalis Presl, Lindernia procumbens Philcox, Lindernia dubia L. Penn., Rotala indica Koehne, Elatine triandra Schk, Ammannia multiflora Roxb. and the like)) were sown in a 500 cm^2 pot filled with paddy field soil and covered with soil. Water was added to the pot (a depth of 0 cm) to be a wet condition, and each test plant was grown in the greenhouse to 1.5 to 3.0 leaf-stage, after then a prescribed, diluted solution of the formulation of each active compound and each herbicidal compound in the table were separately or simultaneously sprayed over the pots with plants. At 3 days after the treatment, the water depth of 3 cm was maintained, and 4 weeks later, herbicidal effect was then examined. In the assessment of the herbicidal effect and the phytotoxicity, 100% refers to complete death and 0% refers to no effect or no phytotoxicity.

[2] = system: submerged direct sown paddy (Nipponbare); experiment: as above; details: spray at 1.5 to 3.0 leaf-stage, 4 weeks later
Method: as §1, §2, §3, §4

[3] = system: Echinochloa oryzicola Vasing; experiment: Weed control by spray treatment at 1.5 to 3.0 leaf-stage (Test Example 3); details: spray at 1.5 to 3.0 leaf-stage, 4 weeks later
Method: as §1, §2, §3, §4

Leptochloa chinensis = experiment: as above; details: spray at 1.5 to 3.0 leaf-stage, 4 weeks later
Method: as §1, §2, §3, §4

Echinochloa cruss-galli = experiment: as above; details: spray at 1.5 to 3.0 leaf-stage, 4 weeks later
Method: as §1, §2, §3, §4

[4] = system: Monochoria vaginalis Presl; experiment: as above; details: spray at 1.5 to 3.0 leaf-stage, 4 weeks later
Method: as §1, §2, §3, §4

Cyperus difformis L. = experiment: as above; details: spray at 1.5 to 3.0 leaf-stage, 4 weeks later
Method: as §1, §2, §3, §4

[5] = system: annual broad-leaved weeds; experiment: as above; details: spray at 1.5 to 3.0 leaf-stage, 4 weeks later
Method: as §1, §2, §3, §4

Cyperus iria L. = experiment: as above; details: spray at 1.5 to 3.0 leaf-stage, 4 weeks later
Method: as §1, §2, §3, §4

[6] = system: Monochoria vaginalis Presl; experiment: Weed control, flooded paddy field, treatment at 1 leaf-stage (Test Example 1); details: after 4 weeks
Method: as §1, §2, §3
(§5) In a greenhouse, seeds or tubers of Echinochloa, Scirpus juncoides Roxburgh, Monochoria vaginalis Presl, annual broad-leaved weeds (Lindernia procumbens Philcox, Lindernia dubia L. Penn., Rotala indica Koehne, Elatine triandra Schk, Ammannia multiflora Roxb.), Cyperus serotinus Rottboel and Sagittaria pygmaea Miq. were inoculated in a 500 cm^2 pot filled with paddy field soil. After 2 leaf-stage of rice were transplanted, water was poured to a depth of about 3 cm. At 1.0 leaf-stage of Echinochloa oryzicola Vasing, a prescribed, diluted solution of the formulation of each active compound and each herbicidal compound in the table was separately or simultaneously applied to the surface of water. After the treatment, the water depth of 3 cm was maintained, and herbicidal effect was examined after 4 weeks. In the assessment of the herbicidal effect and the phytotoxicity, 100% refers to complete death and 0% refers to no effect or no phytotoxicity.

Sagittaria pygmaea Miq. [7] = experiment: as above; details: after 4 weeks
Method: as §1, §2, §3, §5

[8] = system: annual broad-leaved weeds; experiment: as above; details: after 4 weeks
Method: as §1, §2, §3, §5

Echinochloa [9] = experiment: as above; details: after 4 weeks
Method: as §1, §2, §3, §5

[10] = system: Scirpus juncoides Roxburgh; experiment: as above; details: after 4 weeks
Method: as §1, §2, §3, §5

[11] = system: Cyperus serotinus Rottboel; experiment: as above; details: after 4 weeks
Method: as §1, §2, §3, §5

transplanted rice [12] = experiment: Phytotoxicity, flooded paddy field, treatment at 1 leaf-stage (Test Example 1); details: treatment at 1 leaf-stage, after 4 weeks
Method: as §1, §2, §3, §5

transplanted rice [13] = experiment: Phytotoxicity, flooded paddy field, treatment at 3 leaf-stage (Test Example 2); details: rice, in vivo, 4 weeks
Method: as §1, §2, §3
as §5, with “Echinochloa, Cyperus difformis L.,” for “Echinochloa,”, “3.0” for “1.0”, “Echinochloa,” for “Echinochloa oryzicola Vasing,”

[14] = system: Monochoria vaginalis Presl; experiment: Weed control, flooded paddy field, treatment at 3 leaf-stage (Test Example 2); details: after 4 weeks
Method: as §1, §2, §3
as §5, with “Echinochloa, Cyperus difformis L.,” for “Echinochloa,”, “3.0” for “1.0”, “Echinochloa,” for “Echinochloa oryzicola Vasing,”

Sagittaria pygmaea Miq. [15] = experiment: as above; details: after 4 weeks
Method: as §1, §2, §3
as §5, with “Echinochloa, Cyperus difformis L.,” for “Echinochloa,”, “3.0” for “1.0”, “Echinochloa,” for “Echinochloa oryzicola Vasing,”

[16] = system: annual broad-leaved weeds; experiment: as above; details: after 4 weeks
Method: as §1, §2, §3
as §5, with “Echinochloa, Cyperus difformis L.,” for “Echinochloa,”, “3.0” for “1.0”, “Echinochloa,” for “Echinochloa oryzicola Vasing,”

Echinochloa [17] = experiment: as above; details: after 4 weeks
Method: as §1, §2, §3
as §5, with “Echinochloa, Cyperus difformis L.,” for “Echinochloa,”, “3.0” for “1.0”, “Echinochloa,” for “Echinochloa oryzicola Vasing,”

[18] = system: Scirpus juncoides Roxburgh; experiment: as above; details: after 4 weeks
Method: as §1, §2, §3
as §5, with “Echinochloa, Cyperus difformis L.,” for “Echinochloa,”, “3.0” for “1.0”, “Echinochloa,” for “Echinochloa oryzicola Vasing,”

[19] = system: Cyperus serotinus Rottboel; experiment: as above; details: after 4 weeks
Method: as §1, §2, §3
as §5, with “Echinochloa, Cyperus difformis L.,” for “Echinochloa,”, “3.0” for “1.0”, “Echinochloa,” for “Echinochloa oryzicola Vasing,”

| Structure (SMILES) | Phytotoxicity (%) ORYSW*^2 ([1]; 30 g ai/ha) [%] | Phytotoxicity (%) ORYSW*^2 ([1]; 50 g ai/ha) [%] | Phytotoxicity (%) ORYSW*^1 ([2]; 30 g ai/ha) [%] | Phytotoxicity (%) ORYSW*^1 ([2]; 50 g ai/ha) [%] | Herbicidal effect (%) ECHOR ([3]; 30 g ai/ha) [%] | Herbicidal effect (%) ECHOR ([3]; 50 g ai/ha) [%] | Herbicidal effect (%) LEFCH (Leptochloa chinensis; 30 g ai/ha) [%] | Herbicidal effect (%) LEFCH (Leptochloa chinensis; 50 g ai/ha) [%] | Herbicidal effect (%) ECHCG (Echinochloa cruss-galli; 30 g ai/ha) [%] | Herbicidal effect (%) ECHCG (Echinochloa cruss-galli; 50 g ai/ha) [%] | Herbicidal effect (%) MOOVP ([4]; 30 g ai/ha) [%] | Herbicidal effect (%) MOOVP ([4]; 50 g ai/ha) [%] | Herbicidal effect (%) CYPDI (Cyperus difformis L.; 30 g ai/ha) [%] | Herbicidal effect (%) CYPDI (Cyperus difformis L.; 50 g ai/ha) [%] | Herbicidal effect (%) BBBBB ([5]; 30 g ai/ha) [%] | Herbicidal effect (%) BBBBB ([5]; 50 g ai/ha) [%] | Herbicidal effect (%) CYPIR (Cyperus iria L.; 30 g ai/ha) [%] | Herbicidal effect (%) CYPIR (Cyperus iria L.; 50 g ai/ha) [%] | Phytotoxicity (%) ORYSP (transplanted rice [13]) [%] | other results |
| --- | --- | --- | --- | --- | --- | --- | --- | --- | --- | --- | --- | --- | --- | --- | --- | --- | --- | --- | --- | --- |
| COc1nc(OC)nc(C(=O)c2cccc(Cl)c2N(C)S(=O)(=O)C(F)F)n1 [(a-2)] | 5 | 10 | 5 | 10 | 100 | 100 | 65 | 65 | 100 | 100 | 40 | 65 | 100 | 100 | 70 | 85 | 100 | 100 |  |  |
| COc1nc(OC)nc(C(O)c2cccc(Cl)c2N(C)S(=O)(=O)C(F)F)n1 (stereo not shown) [(a-4)] | 0 | 0 | 0 | 5 | 100 | 100 | 50 | 50 | 100 | 100 | 25 | 25 | 100 | 100 | 65 | 75 | 100 | 100 |  |  |
| Cc1c(Cl)ccc(OC(C)C(=O)Nc2ccccc2)c1Cl (stereo not shown) [(b-1), clomeprop] |  |  |  |  |  |  |  |  |  |  |  |  |  |  |  |  |  |  | 0 | Herbicidal effect (%) MOOVP ([6]; 350 g ai/ha): 100%; Herbicidal effect (%) SAGPY (Sagittaria pygmaea Miq. [7]; 350 g ai/ha): 90%; Herbicidal effect (%) BBBBB ([8]; 350 g ai/ha): 100%; Herbicidal effect (%) ECHSS (Echinochloa [9]; 350 g ai/ha): 20%; Herbicidal effect (%) SCPSS ([10]; 350 g ai/ha): 90%; Herbicidal effect (%) CYPSEE ([11]; 350 g ai/ha): 50%; Phytotoxicity (%) ORYSP (transplanted rice [12]; 350 g ai/ha): 10% and 0%; Herbicidal effect (%) MOOVP ([14]; 350 g ai/ha): 100%; Herbicidal effect (%) SAGPY (Sagittaria pygmaea Miq. [15]; 350 g ai/ha): 90%; Herbicidal effect (%) BBBBB ([16]; 350 g ai/ha): 90%; Herbicidal effect (%) ECHSS (Echinochloa [17]; 350 g ai/ha): 20%; Herbicidal effect (%) SCPSS ([18]; 350 g ai/ha): 90%; Herbicidal effect (%) CYPSEE ([19]; 350 g ai/ha): 20% |
| CC(C)(NC(=O)C(Br)C(C)(C)C)c1ccccc1 (stereo not shown) [(b-2), bromobutide] |  |  |  |  |  |  |  |  |  |  |  |  |  |  |  |  |  |  | 0 | Herbicidal effect (%) MOOVP ([6]; 750 g ai/ha): 80%; Herbicidal effect (%) SAGPY (Sagittaria pygmaea Miq. [7]; 750 g ai/ha): 70%; Herbicidal effect (%) BBBBB ([8]; 750 g ai/ha): 50%; Herbicidal effect (%) ECHSS (Echinochloa [9]; 750 g ai/ha): 100%; Herbicidal effect (%) SCPSS ([10]; 750 g ai/ha): 90%; Herbicidal effect (%) CYPSEE ([11]; 750 g ai/ha): 70%; Phytotoxicity (%) ORYSP (transplanted rice [12]; 750 g ai/ha): 0%; Herbicidal effect (%) MOOVP ([14]; 750 g ai/ha): 70%; Herbicidal effect (%) SAGPY (Sagittaria pygmaea Miq. [15]; 750 g ai/ha): 40%; Herbicidal effect (%) BBBBB ([16]; 750 g ai/ha): 30%; Herbicidal effect (%) ECHSS (Echinochloa [17]; 750 g ai/ha): 45%; Herbicidal effect (%) SCPSS ([18]; 750 g ai/ha): 80%; Herbicidal effect (%) CYPSEE ([19]; 750 g ai/ha): 90% |
